Experiments:
[1] = 101 kPa, Liquid; for speed of sound: Sing-around technique in a fixed-path interferometer
[2] = xn = mol fraction of the nth substance listed; details: 101 kPa, Liquid; for speed of sound: Sing-around technique in a fixed-path interferometer

BrCCBr [1,2-dibromoethane]
[1]
Details	mass density [kg/m3]	speed of sound [m/s]
293.15 K	2179.59	1007
298.15 K	2169.14	994.27

BrCCBr [1,2-dibromoethane] + CCCCCCO
[2]
Details	mass density, 293.15 K [kg/m3]	mass density, 298.15 K [kg/m3]	speed of sound, 293.15 K [m/s]	speed of sound, 298.15 K [m/s]
x1 = 0.0402	856.608	852.83	1296.7	1280
x1 = 0.0682	883.413	879.495	1281	1264.4
x1 = 0.1276	941.916	937.69	1249.4	1233.1
x1 = 0.2056	1022.36	1017.7	1211.2	1195.3
x1 = 0.2686	1090.47	1085.45	1182.9	1167.3
x1 = 0.3892	1228.97	1223.2	1135.2	1120.2
x1 = 0.4277	1276.43	1270.41	1121.2	1106.3
x1 = 0.5444	1427.13	1420.31	1083.6	1069.2
x1 = 0.6405	1562	1554.45	1057.4	1043.6
x1 = 0.7326	1701.64	1693.37	1036.5	1023.1
x1 = 0.8519	1899.69	1890.44	1016.8	1004
x1 = 0.9273	2036.52	2026.66	1009.9	997.38
x1 = 0.9587	2096.51	2086.4	1008.3	995.92
x1 = 0.9782	2135.29	2125.02	1007.4	994.76
x1 = 1	2179.59	2169.14	1007	994.27

ClCCCl [1,2-dichloroethane]
[1]
Details	mass density [kg/m3]	speed of sound [m/s]
293.15 K	1252.77	1212.9
298.15 K	1245.56	1193.6

ClCCCl [1,2-dichloroethane] + CCCCCCO
[2]
Details	mass density, 293.15 K [kg/m3]	mass density, 298.15 K [kg/m3]	speed of sound, 293.15 K [m/s]	speed of sound, 298.15 K [m/s]
x1 = 0.037	828.769	825.105	1313.2	1296.2
x1 = 0.0769	839.847	836.074	1305.3	1288.2
x1 = 0.1499	860.583	856.62	1291.7	1274.3
x1 = 0.2147	879.725	875.586	1279.7	1262.2
x1 = 0.2935	904.954	900.591	1265.2	1248
x1 = 0.3952	940.475	935.784	1247.7	1230
x1 = 0.4532	962.107	957.223	1238.5	1220.7
x1 = 0.5596	1005.05	999.79	1222.8	1206
x1 = 0.6113	1027.55	1022.09	1216.7	1199.8
x1 = 0.6971	1067.98	1062.14	1207.9	1189.7
x1 = 0.7791	1111.06	1104.85	1202.3	1184.3
x1 = 0.8563	1155.16	1148.59	1200.7	1182.8
x1 = 0.9335	1205.43	1198.46	1205.4	1184.3
x1 = 0.979	1236.99	1229.8	1211.8	1187.7
x1 = 1	1252.77	1245.56	1212.9	1193.6

CCCCCCO [hexan-1-ol]
[1]
Details	mass density [kg/m3]	speed of sound [m/s]
293.15 K	818.856	1320.1
298.15 K	815.281	1303.2

CCCCCCO [hexan-1-ol] + BrCCBr
[2], x2 = 0
Details	mass density [kg/m3]	speed of sound [m/s]
293.15 K	818.856	1320.1
298.15 K	815.281	1303.2

CCCCCCO [hexan-1-ol] + ClC(Cl)=C(Cl)Cl
[2], x2 = 0
Details	mass density [kg/m3]	speed of sound [m/s]
293.15 K	818.856	1320.1
298.15 K	815.281	1303.2

CCCCCCO [hexan-1-ol] + ClCCCl
[2], x2 = 0
Details	mass density [kg/m3]	speed of sound [m/s]
293.15 K	818.856	1320.1
298.15 K	815.281	1303.2

ClC(Cl)=C(Cl)Cl [tetrachloroethene]
[1]
Details	mass density [kg/m3]	speed of sound [m/s]
293.15 K	1622.74	1054
298.15 K	1614.43	1039

ClC(Cl)=C(Cl)Cl [tetrachloroethene] + CCCCCCO
[2]
Details	mass density, 293.15 K [kg/m3]	mass density, 298.15 K [kg/m3]	speed of sound, 293.15 K [m/s]	speed of sound, 298.15 K [m/s]
x1 = 0.0688	864.637	860.792	1292	1274.5
x1 = 0.123	901.521	897.46	1270.8	1253.7
x1 = 0.2457	987.759	983.18	1226.3	1209.5
x1 = 0.3618	1072.99	1067.89	1188.2	1171.6
x1 = 0.4502	1140.46	1134.94	1161.5	1144.9
x1 = 0.5583	1226.3	1220.26	1131.5	1115.1
x1 = 0.6518	1303.62	1297.1	1108.3	1092
x1 = 0.7068	1350.53	1343.73	1095.8	1079.5
x1 = 0.7419	1381.18	1374.19	1088.4	1072
x1 = 0.7797	1414.65	1407.46	1080.9	1064.6
x1 = 0.8315	1461.44	1453.97	1071.4	1055.6
x1 = 0.8718	1498.8	1491.15	1064.7	1049
x1 = 0.9179	1542.25	1534.33	1058.2	1043.3
x1 = 0.9504	1573.61	1565.56	1055	1041.2
x1 = 1	1622.74	1614.43	1054	1039
